In US20240246946A1, “MODULATORS OF TREX1” (Constellation Pharmaceuticals, Inc., priority 2021, published 2024):

Tests used:
full length human TREX1 = molecular target: T1, full length human TREX1 (Homo sapiens, UniProt Q9NSU2); test: hTREX1 Biochemical Assay (fluorescence, dsDNA substrate degradation); conditions: biochemical, read-out: hTREX1 IC50
T1 construct: N-terminally His-Tev tagged full length human TREX1; made in house; host or cells: E. coli
T1 sequence (Q9NSU2 1-314): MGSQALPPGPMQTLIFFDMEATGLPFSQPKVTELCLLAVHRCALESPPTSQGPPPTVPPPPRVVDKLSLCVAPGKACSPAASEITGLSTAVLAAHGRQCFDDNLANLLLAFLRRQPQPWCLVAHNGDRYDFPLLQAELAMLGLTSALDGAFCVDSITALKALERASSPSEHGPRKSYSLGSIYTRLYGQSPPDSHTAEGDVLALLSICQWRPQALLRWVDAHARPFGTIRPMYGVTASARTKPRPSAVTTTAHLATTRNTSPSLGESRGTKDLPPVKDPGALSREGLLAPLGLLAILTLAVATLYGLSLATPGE
Summary of the method: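 Cleavage of 60 nM TEX615/quencher-labelled dsDNA in pH 7.4 Tris buffer with 5 mM MgCl2, 1.0% DMSO, run 18 hours at 25° C, EDTA-quenched; fluorescence read-out.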

[1] = molecular target: T2, human TREX2 (residues M44-A279) (Homo sapiens, UniProt Q9BQ50); test: hTREX2 Biochemical Assay (fluorescence, dsDNA substrate degradation); conditions: biochemical selectivity for hTREX1 vs hTREX2
T2 construct: human TREX2 (residues M44-A279, expressed in E. coli); made in house; host or cells: E. coli
T2 sequence (Q9BQ50 44-279 isoform Q9BQ50-1): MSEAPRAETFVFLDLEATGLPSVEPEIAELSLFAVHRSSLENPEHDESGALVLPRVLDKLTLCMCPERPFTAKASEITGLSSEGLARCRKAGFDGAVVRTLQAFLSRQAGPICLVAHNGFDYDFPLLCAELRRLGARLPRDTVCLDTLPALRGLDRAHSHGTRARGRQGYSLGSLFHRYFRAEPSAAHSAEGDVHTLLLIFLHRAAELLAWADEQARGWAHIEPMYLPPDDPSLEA
Summary of the method: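 N-His-Tev E. coli enzyme (50 pM) pre-incubated with compound 4 h at 25 °C, then 60 nM TEX615/quencher dsDNA added; 18 h at 25 °C, pH 7.4 Tris buffer with 5 mM MgCl2, 1.0% DMSO. EDTA-quenched; fluorescence 570 ex/615 em from liberated fluorophore, 10-point dose-response.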

full length mouse TREX1 = molecular target: T3, full length mouse TREX1 (Mus musculus, UniProt Q91XB0); test: mTREX1 Biochemical Assay (fluorescence, dsDNA substrate degradation); conditions: biochemical, read-out: mTREX1 IC50
T3 construct: N-terminally His-Tev tagged full length mouse TREX1; made in house; host or cells: E. coli
T3 sequence (Q91XB0 1-314): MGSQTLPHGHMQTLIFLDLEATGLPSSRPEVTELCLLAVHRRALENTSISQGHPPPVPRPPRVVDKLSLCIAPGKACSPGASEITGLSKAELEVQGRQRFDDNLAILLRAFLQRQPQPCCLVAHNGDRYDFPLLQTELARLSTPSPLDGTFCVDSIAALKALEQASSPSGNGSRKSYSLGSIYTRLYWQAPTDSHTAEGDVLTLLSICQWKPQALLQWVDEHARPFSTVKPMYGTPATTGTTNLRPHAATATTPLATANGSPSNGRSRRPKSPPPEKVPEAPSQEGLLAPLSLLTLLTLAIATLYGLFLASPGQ
Summary of the method: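 Reaction run 18 h at 25° C. with 60 nM TEX615/quencher-labelled dsDNA and 6 pM mouse TREX1 in Tris buffer (pH 7.4, 5 mM MgCl2, 1.0% DMSO), enzyme having sat 4 h with compound across 10 concentrations. EDTA quench; substrate degradation measured as fluorescence increase.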

hTREX1 = molecular target: T4, hTREX1 (Homo sapiens, UniProt Q9NSU2); test: hTREX1 HCT116 Cell Assay (HCT116 dual cells, Lucia luciferase reporter of Type I interferon induction); type: cell-based; conditions: TREX1i 4 h before pBR322/BstNI transfection, read after 48 h
T4 construct: host or cells: HCT116 dual cells
T4 sequence (Q9NSU2 1-314): T1 sequence (Q9NSU2 1-314)
Summary of the method: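 HCT116 dual cells carrying an ISRE-type STAT1/STAT2-driven secreted Lucia luciferase reporter were pretreated with TREX1 inhibitor for 4 h (≤0.1% DMSO), then transfected with pBR322/BstNI DNA (100 ng/well, Lipofectamine LTX). Luciferase in medium read after 48 h at 37 °C.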

Row | Compound | IC50 (full length human TREX1) | hTREX1 vs hTREX2 selectivity [1] | IC50 (full length mouse TREX1) | IC50 (hTREX1)
1 | Cc1cnc(C)c(C(c2ccccc2Cl)C(C)c2nc(C(=O)Nc3cnoc3)c(O)c(=O)n2C)n1 (single isomer, unassigned) [Example 120 D1E1] | < 1 nM | C (C = >50 fold selective for hTREX1) | 1 to 10 nM | < 10 nM
2 | Cc1cnc(C)c(C(c2ccccc2Cl)C(C)c2nc(C(=O)Nc3cnoc3)c(O)c(=O)n2C)n1 (single isomer, unassigned) [Example 120 D2E2] | > 10 nM | C (C = >50 fold selective for hTREX1) | > 10 nM | > 100 nM
3 | Cc1cnc(C)c(C(c2cc(F)ccc2Cl)C(C)c2nc(C(=O)Nc3cnoc3)c(O)c(=O)n2C)n1 (single isomer, unassigned) [Example 121 D1E1] | < 1 nM | C (C = >50 fold selective for hTREX1) | 1 to 10 nM | < 10 nM
4 | Cc1cnc(C)c(C(c2cc(F)ccc2Cl)C(C)c2nc(C(=O)Nc3cnoc3)c(O)c(=O)n2C)n1 (single isomer, unassigned) [Example 121 D2E1] | > 10 nM | B (B = 25 to 50-fold selective for hTREX1) | > 10 nM | > 100 nM
5 | Cc1nc(C)c(C(c2ccccc2C#N)C(C)c2nc(C(=O)Nc3cnoc3)c(O)c(=O)n2C)nc1C (single isomer, unassigned) [Example 122 D2E1] | 1 to 10 nM | B (B = 25 to 50-fold selective for hTREX1) | > 10 nM | > 100 nM
6 | Cc1cnc(C(c2ccccc2C#N)C(C)c2nc(C(=O)Nc3cnoc3)c(O)c(=O)n2C)c(C)n1 (single isomer, unassigned) [Example 123 D1E1] | 1 to 10 nM | C (C = >50 fold selective for hTREX1) | 1 to 10 nM | > 100 nM
7 | Cc1ncc(C(c2ccccc2Cl)C(C)c2nc(C(=O)Nc3cnoc3)c(O)c(=O)n2C)nc1C (single isomer, unassigned) [Example 125 D2E1] | 1 to 10 nM | A (A = <25 fold selective for hTREX1) | > 10 nM | > 100 nM
8 | CC(c1nc(C(=O)Nc2cnoc2)c(O)c(=O)n1C)C(c1ccccc1C#N)c1c[nH]nc1F (single isomer, unassigned) [Example 127 D1E1] | < 1 nM | B (B = 25 to 50-fold selective for hTREX1) | < 1 nM | < 10 nM
9 | CC(c1nc(C(=O)Nc2cnoc2)c(O)c(=O)n1C)C(c1ccccc1C#N)c1c[nH]nc1F (single isomer, unassigned) [Example 127 D1E2] | 1 to 10 nM | B (B = 25 to 50-fold selective for hTREX1) | > 10 nM | > 100 nM
10 | CC(c1nc(C(=O)Nc2cnoc2)c(O)c(=O)n1C)C(c1ccccc1Cl)c1cn(C)nc1F (single isomer, unassigned) [Example 130 D1E1] | < 1 nM | B (B = 25 to 50-fold selective for hTREX1) | < 1 nM | < 10 nM
11 | Cc1ccn(C(c2ccccc2C#N)C(C)c2nc(C(=O)Nc3cnoc3)c(O)c(=O)n2C)n1 (single isomer, unassigned) [Example 132 D1E2] | < 1 nM | C (C = >50 fold selective for hTREX1) | 1 to 10 nM | 10 to 100 nM
12 | Cc1cnn(C(c2ccccc2Cl)C(C)c2nc(C(=O)Nc3cnoc3)c(O)c(=O)n2C)c1 (single isomer, unassigned) [Example 133 D1E2] | 1 to 10 nM | A (A = <25 fold selective for hTREX1) | 1 to 10 nM | 10 to 100 nM
13 | CCc1cnn(C(c2ccccc2Cl)C(C)c2nc(C(=O)Nc3cnoc3)c(O)c(=O)n2C)c1 (single isomer, unassigned) [Example 134 D1E1] | 1 to 10 nM | A (A = <25 fold selective for hTREX1) | 1 to 10 nM | > 100 nM
14 | CC(C)c1cnn(C(c2ccccc2Cl)C(C)c2nc(C(=O)Nc3cnoc3)c(O)c(=O)n2C)c1 (single isomer, unassigned) [Example 135 D1E1] | 1 to 10 nM | B (B = 25 to 50-fold selective for hTREX1) | 1 to 10 nM | > 100 nM
15 | Cc1cc(C)n(C(c2ccccc2Cl)C(C)c2nc(C(=O)Nc3cnoc3)c(O)c(=O)n2C)n1 (single isomer, unassigned) [Example 136 D1E2] | < 1 nM | B (B = 25 to 50-fold selective for hTREX1) | > 10 nM | 10 to 100 nM
16 | Cc1cc(C)n(C(c2ccccc2C#N)C(C)c2nc(C(=O)Nc3cnoc3)c(O)c(=O)n2C)n1 (single isomer, unassigned) [Example 137 D1E1] | < 1 nM | B (B = 25 to 50-fold selective for hTREX1) | 1 to 10 nM | < 10 nM
17 | Cc1ccnn1C(c1ccccc1C#N)C(C)c1nc(C(=O)Nc2cnoc2)c(O)c(=O)n1C (single isomer, unassigned) [Example 138 D1E1] | < 1 nM | B (B = 25 to 50-fold selective for hTREX1) | 1 to 10 nM | 10 to 100 nM
18 | CC(c1nc(C(=O)Nc2cnoc2)c(O)c(=O)n1C)C(c1ccccc1Cl)n1cc(C(F)(F)F)cn1 (single isomer, unassigned) [Example 139 D1E1] | 1 to 10 nM | A (A = <25 fold selective for hTREX1) | 1 to 10 nM | > 100 nM
19 | CC(c1nc(C(=O)Nc2cnoc2)c(O)c(=O)n1C)C(c1ccccc1Cl)n1nccc1C#N (single isomer, unassigned) [Example 140 D1E1] | < 1 nM | B (B = 25 to 50-fold selective for hTREX1) | 1 to 10 nM | 10 to 100 nM
20 | CC(c1nc(C(=O)Nc2cnoc2)c(O)c(=O)n1C)C(c1ccccc1Cl)n1cc2ccccc2n1 (single isomer, unassigned) [Example 141 D1E1] | 1 to 10 nM | A (A = <25 fold selective for hTREX1) | 1 to 10 nM | > 100 nM
21 | Cc1cn(C(c2ccccc2Cl)C(C)c2nc(C(=O)Nc3cnoc3)c(O)c(=O)n2C)cn1 (single isomer, unassigned) [Example 142 D1E2] | < 1 nM | A (A = <25 fold selective for hTREX1) | 1 to 10 nM | > 100 nM
22 | CC(c1nc(C(=O)Nc2cnoc2)c(O)c(=O)n1C)C(c1ccccc1Cl)n1cnc2ccccc21 (single isomer, unassigned) [Example 143 D1E1] | < 1 nM | B (B = 25 to 50-fold selective for hTREX1) | 1 to 10 nM | 10 to 100 nM
23 | Cc1cnn(C(c2cc(F)ccc2Cl)C(C)c2nc(C(=O)Nc3cnoc3)c(O)c(=O)n2C)c1 (single isomer, unassigned) [Example 144 D1E2] | 1 to 10 nM | A (A = <25 fold selective for hTREX1) | > 10 nM | > 100 nM
24 | Cc1ccnn1C(c1cc(F)ccc1Cl)C(C)c1nc(C(=O)Nc2cnoc2)c(O)c(=O)n1C (single isomer, unassigned) [Example 145 D1E1] | 1 to 10 nM | B (B = 25 to 50-fold selective for hTREX1) | > 10 nM | 10 to 100 nM
